Here are results for twelve compounds from patent US12673954B2 (BRISTOL-MYERS SQUIBB COMPANY, priority 2021, dated 2026).

Structures are written as SMILES. Where two headings read alike, the source gives them in different places.

Assay [1] relates to IRF pathway, THP1-Dual™ cells. The assay can be described thus: STING reporter assay in THP1-Dual cells, IRF pathway (Lucia luciferase, QUANTI-Luc). The class given is cell-based, human. Conditions: THP1-Dual cells, 10% human plasma, 20 hours, Lucia luciferase, 100% activation = 100 μM cGAMP, read-out: IRF (EC50 μM). In short, it runs like this: (§1)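 THP-1-derived dual-reporter cells treated with serially diluted compounds (final top concentration 100 μM) for 20 h at 37° C. NF-κB read as SEAP via QUANTI-Blue at OD620; IRF read as Lucia luminescence via QUANTI-Luc after 5 min. 100% activation set by 100 μM cGAMP, baseline by DMSO.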

For assay [2], the system named is NF-κB pathway, THP1-Dual™ cells. Description: STING reporter assay in THP1-Dual cells, NF-κB pathway (SEAP, QUANTI-Blue). The class given is cell-based, human. Conditions: THP1-Dual cells, 10% human plasma, 20 hours, SEAP, 100% activation = 100 μM cGAMP, read-out: NFkB (EC50 μM). Summed up:
as §1
A general note: Reporter assays use an easily measured gene product as a stand-in for the process of interest.

The term EC50 denotes the concentration at which the effect is half-maximal.

As to `COc1cc(C(=O)OCC(F)(F)F)c2oc(CNC(=O)c3cnn4cccnc34)cc2c1` [EXAMPLE 280, 2,2,2-Trifluoroethyl 5-methoxy-2-((pyrazolo[1,5-a]pyrimidine-3-carboxamido)methyl)benzofuran-7-carboxylate], the EC50 in assay [1] (Homo sapiens, THP1-Dual, 20 h) came to 2.5 µM; in assay [2] (Homo sapiens, THP1-Dual, 20 h) it was 2.4 µM.

With `COC(=O)c1cc(F)cc2cc(CNC(=O)c3cnccn3)oc12` [EXAMPLE 42, Methyl 5-fluoro-2-((pyrazine-2-carboxamido)methyl)benzofuran-7-carboxylate], the EC50 came out at 4.1 µM in assay [1] (Homo sapiens, THP1-Dual, 20 h) and 3.6 µM in assay [2] (Homo sapiens, THP1-Dual, 20 h).

`COC(=O)c1cccc2cc(Cn3cnc4ccncc4c3=O)oc12` [EXAMPLE 6, Methyl 2-((4-oxopyrido[4,3-d]pyrimidin-3(4H)-yl)methyl)benzofuran-7-carboxylate]: the half-maximal effective concentration (EC50) is 5.1 µM in assay [1] (Homo sapiens, THP1-Dual, 20 h) and 3.1 µM in assay [2] (Homo sapiens, THP1-Dual, 20 h).

Regarding `C[C@@H](OC(=O)Cc1cc(F)cc2cc(CNC(=O)c3cnn4cccnc34)oc12)C(F)(F)F` [EXAMPLE 367, (R)-1,1,1-Trifluoropropan-2-yl 2-(5-fluoro-2-((pyrazolo[1,5-a]pyrimidine-3-carboxamido)methyl)benzofuran-7-yl)acetate], the EC50 is 7.5 µM in assay [1] (Homo sapiens, THP1-Dual, 20 h) and 9.5 µM in assay [2] (Homo sapiens, THP1-Dual, 20 h).

Consider `COC(OC(=O)c1cc(F)cc2cc(CNC(=O)c3cnc4cccnn34)oc12)C(F)(F)F` (single isomer, unassigned) [EXAMPLE 314, 2,2,2-Trifluoro-1-methoxyethyl 5-fluoro-2-((imidazo[1,2-b]pyridazine-3-carboxamido)methyl)benzofuran-7-carboxylate], for which the EC50 in assay [1] and in assay [2] was 1.9 µM throughout.

In the case of `CC(OC(=O)c1cc(F)c(F)c2cc(CNC(=O)c3cnn4cccnc34)oc12)C(F)(F)F` (stereo not drawn) [EXAMPLE 227, 1,1,1-Trifluoropropan-2-yl 4,5-difluoro-2-((pyrazolo[1,5-a]pyrimidine-3-carboxamido)methyl)benzofuran-7-carboxylate], the EC50 in assay [1] (Homo sapiens, THP1-Dual, 20 h) stood at 3.8 µM; in assay [2] (Homo sapiens, THP1-Dual, 20 h) it was 4.2 µM.

On to `Cc1cc(C(=O)O)c2oc(C(C)NC(=O)c3cnn4cccnc34)cc2c1` (racemic) [EXAMPLE 186, 5-Methyl-2-(1-(pyrazolo[1,5-a]pyrimidine-3-carboxamido)ethyl)benzofuran-7-carboxylic acid], for which the figures for the EC50 in assay [1] and in assay [2] were 84 µM and above 100 µM, respectively.

`Cc1cc(C(=O)O[C@H](C)C(F)(F)F)c2oc(C(C)NC(=O)c3cnn4cccnc34)c(Cl)c2c1` (stereo partly drawn) [EXAMPLE 304, (R)-1,1,1-Trifluoropropan-2-yl 3-chloro-5-methyl-2-(1-(pyrazolo[1,5-a]pyrimidine-3-carboxamido)ethyl)benzofuran-7-carboxylate]: the EC50 in assay [1] (Homo sapiens, THP1-Dual, 20 h) is 7.6 µM; in assay [2] (Homo sapiens, THP1-Dual, 20 h) it was 8.3 µM.

`O=C(OCc1cccc(CO)c1)c1cc(Cl)cc2cc(CNC(=O)c3cnn4cccnc34)oc12` [EXAMPLE 252, 3-(Hydroxymethyl)benzyl 5-chloro-2-((pyrazolo[1,5-a]pyrimidine-3-carboxamido)methyl)benzofuran-7-carboxylate]: the EC50 came out at 6.4 µM in assay [1] (Homo sapiens, THP1-Dual, 20 h) and 5.4 µM in assay [2] (Homo sapiens, THP1-Dual, 20 h).

In the case of `Cc1ccc(C(=O)OC(C)C(F)(F)F)c2oc(CNC(=O)c3cnn4cccnc34)cc12` (stereo not drawn) [EXAMPLE 225, 1,1,1-Trifluoropropan-2-yl 4-methyl-2-((pyrazolo[1,5-a]pyrimidine-3-carboxamido)methyl)benzofuran-7-carboxylate], the EC50 stood at 7.5 µM in assay [1] (Homo sapiens, THP1-Dual, 20 h) and 7.5 µM in assay [2] (Homo sapiens, THP1-Dual, 20 h).

As to `COC(=O)c1cc(Br)cc2cc(CNC(=O)c3cnn4cccnc34)oc12` [Example 80, Methyl 5-bromo-2-((pyrazolo[1,5-a]pyrimidine-3-carboxamido)methyl)benzofuran-7-carboxylate], the EC50 in assay [1] (Homo sapiens, THP1-Dual, 20 h) came to 0.8 µM; in assay [2] (Homo sapiens, THP1-Dual, 20 h), 1.1 µM.

Consider `C[C@H](NC(=O)c1cnn2cccnc12)c1oc2c(C(=O)OCC(F)(F)F)cc(Cl)cc2c1Cl` [EXAMPLE 297, 2,2,2-Trifluoroethyl (S)-3,5-dichloro-2-(1-(pyrazolo[1,5-a]pyrimidine-3-carboxamido)ethyl)benzofuran-7-carboxylate], for which the EC50 in assay [1] (Homo sapiens, THP1-Dual, 20 h) is 3.1 µM; in assay [2] (Homo sapiens, THP1-Dual, 20 h), 3.2 µM.
